Measurements as given in article PMC2933614, “Quantitative in vitro and in vivo pharmacological profile of CE-178253, a potent and selective cannabinoid type 1 (CB1) Receptor Antagonist” (BMC Pharmacology, 2010).
Where two headings read alike, the source gives them in different places.

Assays:
[1] = Unbound plasma concentration of CE-178253; format: in vivo, rat; conditions: for Unbound Plasma Concentration (± S-D): indirect calorimetry study; for concentration at […]: Sprague-Dawley, rat, plasma, oral, fast-induced refeeding study, read-out: Unbound Plasma Concentration (± S-D)
Protocol: Plasma bound fractions for CE-178253 were determined using an equilibrium dialysis assay, as previously described. Spectra-Por 2 membranes (Spectrum Laboratories Inc., Rancho Dominguez, CA) with a molecular cut-off of 12-14 kDa were used for the dialysis. Equilibrium of the system was achieved by incubating the apparatus for 4.5 hr in a 37°C reciprocating water bath (set at 155 rpm). A standard curve was set up over the range 1-1000 ng/mL. All samples were quantified using liquid chromatography/tandem mass spectrometry using a PE Sciex API 3000 spectrometer. For plasma, the unbound fraction was determined as the ratio of concentrations determined in buffer and plasma.

[2] = biological target: T1, brain CB1 receptor (Rattus norvegicus, UniProt P20272); assay: Ex vivo brain receptor occupancy; format: in vivo
T1 construct: Brain homogenates were prepared by adding TME buffer to pre-weighed tissue; from tissue; host or cells: brain homogenate of Sprague Dawley rats dosed p.o
Protocol: An ex vivo brain receptor occupancy assay was used to calculate the in vivo receptor occupancy of CE-178253 at selected doses. […] Brains were removed from the rats 2 hr after return of food. […] The homogenate was diluted to a concentration of 2 mg/mL using TME buffer. […] The plates were then covered and incubated for 90 min at room temperature on a plate shaker. Reactions were stopped by the addition of 100 μL ice cold 7.5% BSA in TME. The plates were aspirated then harvested onto GF/C filter plates (Perkin Elmer Life Sciences; Boston, MA) using ice-cold TME buffer. The filter plates had been pre-soaked in 50 μL 0.5% BSA in TME for 60 min. Filters were dried at room temperature for 30 min, after which 25 μL of Microscint™ (Perkin Elmer Life Sciences; Boston, MA) was added to each and the plates analyzed on a Microbeta counter. Care was taken in our assay to minimize drug-tissue dissociation by comparing binding in a time course and under various conditions. […] Experiments were run in triplicate with at least an n = 3 for each treatment group.

[3] = Plasma to brain concentration ratios (brain impairment); format: in vivo; conditions: Sprague-Dawley, rat, brain and plasma (unbound and total), oral; mean ± SD over 0.3, 1, 3, 10 mg/kg p.o., n = 3 per dose; read-out: Ratios of unbound plasma and total plasma to unbound brain and total brain concentrations
[4] = biological target: T2, human CB1 in CHO cells (Homo sapiens, UniProt P21554); assay: GTPγ[35S] functional assay, antagonism of CP-55940 stimulation, Schild analysis; format: biochemical
T2 construct: expressed in transfected cells
Protocol: GTPγ[^35S] binding assays were performed as described. GTPγ[^35S] binding assays were performed in a 96-well FlashPlate™ format in duplicate using 100 pM GTPγ[^35S] and 10 μg membrane per well in assay buffer composed of 50 mM Tris HCl (pH 7.4); 3 mM MgCl2 (pH 7.4); 10 mM MgCl2, 20 mM EGTA, 100 mM NaCl, 30 μM GDP, 0.1% BSA and the following protease inhibitors: 100 μg/ml bacitracin, 100 μg/ml benzamidine, 5 μg/ml aprotinin, and 5 μg/ml leupeptin. […] Assays were performed at 30°C for 1 hr. The FlashPlates™ were then centrifuged at 2000×g for 10 min. Stimulation of GTPγ[^35S] binding was then quantified using a Wallac Microbeta® [16].
Saturation and competition radioligand binding assays were used to characterize membranes prepared from human recombinant CB1 and CB2 and rat brain membranes.

[5] = biological target: Vanilloid 1 (TRPV1) receptor channel (Homo sapiens, UniProt Q8NER1); assay: TRPV1 functional assay; format: biochemical; conditions: range 9-13%, n = 2
Source text: Rimonabant also binds weakly to the Vanilloid 1 (TRPV1) receptor channel. […] CE-178253 was not evaluated against TRPM8. Rimonabant has been reported to bind to TRPM8 [21].

[6] = Four day DIO rat food intake and body weight study; format: in vivo; conditions: 4-day, DIO rats
Protocol: Male 15 week old S-D rats which had been maintained on a high fat diet (Research Diets, D12079BM, 45% kcal from fat) for 10 weeks were selected for the DIO weight loss study. DIO rats were singly housed were acclimated to handling and dosing and two days of food intake were recorded to establish baseline food intake values before dosing was initiated. The heaviest animals were randomly sorted and assigned to treatment groups (n = 8 per group). The mean starting weight of all animals was 639 ± 8 g. Rats were dosed (2 mls/kg) with veh. or CE-178253 according to body weight. FI and BW were recorded daily.
DIO rats were treated once daily with veh. (0.5% MC) or CE-178253 at doses of 0.3 mg/kg p.o. or 1 mg/kg p.o. in a 4-day study (Figures 6A and 6B). […] The effects on FI were apparent after the first doses and sustained over the 4-day study period. […] In contrast, there was no change in weight in veh-treated rats. Initial and final body weights of veh-treated rats were 643 ± 15 g and 645 ± 14 g, respectively. Initial and final body weights of 0.3 mg/kg CE-178253-treated rats were 632 ± 11 g and 616 ± 12 g, respectively. Initial and final body weights of 1 mg/kg CE-178253-treated rats were 637 ± 11 g and 602 ± 11 g, respectively. A statistically significant difference in BW between veh and the 1 mg/kg dose was observed (p < 0.05).

[7] = Rat oral PK studies; format: in vivo

T1 sequence (P20272 whole entry): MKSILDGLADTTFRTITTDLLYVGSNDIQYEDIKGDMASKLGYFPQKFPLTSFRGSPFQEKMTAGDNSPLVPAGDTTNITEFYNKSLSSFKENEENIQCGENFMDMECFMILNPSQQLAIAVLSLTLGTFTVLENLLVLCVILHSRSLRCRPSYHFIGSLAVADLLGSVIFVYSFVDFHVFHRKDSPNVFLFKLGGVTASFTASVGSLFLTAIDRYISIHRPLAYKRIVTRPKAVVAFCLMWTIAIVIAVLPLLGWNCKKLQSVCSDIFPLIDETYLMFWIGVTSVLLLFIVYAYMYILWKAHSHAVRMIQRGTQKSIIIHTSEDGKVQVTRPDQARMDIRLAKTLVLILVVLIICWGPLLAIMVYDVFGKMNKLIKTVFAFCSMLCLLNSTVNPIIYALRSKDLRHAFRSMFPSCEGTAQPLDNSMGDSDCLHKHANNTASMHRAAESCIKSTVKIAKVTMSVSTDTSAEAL
T2 sequence (P21554 whole entry): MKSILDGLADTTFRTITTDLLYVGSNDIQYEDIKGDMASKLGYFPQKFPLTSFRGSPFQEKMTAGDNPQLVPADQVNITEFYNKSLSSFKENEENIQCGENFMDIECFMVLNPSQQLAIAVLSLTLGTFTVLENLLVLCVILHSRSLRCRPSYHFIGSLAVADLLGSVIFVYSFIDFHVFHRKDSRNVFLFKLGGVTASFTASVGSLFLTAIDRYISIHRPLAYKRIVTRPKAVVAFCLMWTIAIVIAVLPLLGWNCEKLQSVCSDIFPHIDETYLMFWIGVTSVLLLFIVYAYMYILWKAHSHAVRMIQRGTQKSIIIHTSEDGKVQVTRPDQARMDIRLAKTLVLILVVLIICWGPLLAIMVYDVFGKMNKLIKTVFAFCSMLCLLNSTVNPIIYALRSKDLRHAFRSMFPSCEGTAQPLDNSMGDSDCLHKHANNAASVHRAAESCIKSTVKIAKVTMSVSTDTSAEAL
Chain of Vanilloid 1 (TRPV1) receptor channel (Q8NER1 whole entry, species assumed): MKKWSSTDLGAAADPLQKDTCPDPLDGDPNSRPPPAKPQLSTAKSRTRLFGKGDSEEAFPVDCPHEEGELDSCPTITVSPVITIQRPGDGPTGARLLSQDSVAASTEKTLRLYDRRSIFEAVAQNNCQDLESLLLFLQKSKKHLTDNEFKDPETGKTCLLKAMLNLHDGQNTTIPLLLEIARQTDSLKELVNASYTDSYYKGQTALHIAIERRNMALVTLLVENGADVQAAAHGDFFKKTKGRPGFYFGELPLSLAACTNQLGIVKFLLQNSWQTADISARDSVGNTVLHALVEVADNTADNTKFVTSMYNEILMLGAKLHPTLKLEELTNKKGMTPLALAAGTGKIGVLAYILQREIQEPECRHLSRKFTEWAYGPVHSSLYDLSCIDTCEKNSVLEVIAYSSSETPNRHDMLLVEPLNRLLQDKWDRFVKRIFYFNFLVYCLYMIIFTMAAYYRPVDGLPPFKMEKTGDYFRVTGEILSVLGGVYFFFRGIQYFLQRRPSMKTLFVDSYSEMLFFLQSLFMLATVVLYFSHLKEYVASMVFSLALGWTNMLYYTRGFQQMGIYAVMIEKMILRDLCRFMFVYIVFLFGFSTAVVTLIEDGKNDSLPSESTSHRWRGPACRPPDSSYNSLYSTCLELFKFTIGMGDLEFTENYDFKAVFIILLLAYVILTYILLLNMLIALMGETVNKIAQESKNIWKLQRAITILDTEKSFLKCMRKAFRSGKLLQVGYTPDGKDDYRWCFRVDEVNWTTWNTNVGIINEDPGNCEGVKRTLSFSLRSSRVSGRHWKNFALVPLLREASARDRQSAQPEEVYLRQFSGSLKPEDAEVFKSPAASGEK

Unbound Plasma Concentration (± S-D) ([1]; 1 mg/kg p.o.): 0.8 ± 0.2 nM
Unbound Plasma Concentration (± S-D) ([1]; 3 mg/kg p.o.): 3.8 ± 0.9 nM
concentration at […] ([1]; 0.3 mg/kg p.o.): 0.17 ± 0.02 nM
concentration at […] ([1]; 1 mg/kg p.o.): 1 ± 0.3 nM
concentration at […] ([1]; 3 mg/kg p.o.): 2.7 ± 1 nM
concentration at […] ([1]; 10 mg/kg p.o.): 15.6 ± 1.6 nM
Receptor occupancy required for maximum efficacy ([2]; calculated, energy intake and expenditure models): 50-75%
receptor occupancy at 0.3 mg/kg ([2]; rat, po, 0.3 mg/kg p.o., brains removed 2 hr after return of food, read-out: % Receptor Occupancy (mean ± S-D)): 27 ± 12%
receptor occupancy at 1 mg/kg ([2]; rat, po, 1 mg/kg p.o., brains removed 2 hr after return of food, read-out: % Receptor Occupancy (mean ± S-D)): 64 ± 2%
receptor occupancy at 3 mg/kg ([2]; rat, po, 3 mg/kg p.o., brains removed 2 hr after return of food, read-out: % Receptor Occupancy (mean ± S-D)): 78 ± 6%
receptor occupancy at 10 mg/kg ([2]; rat, po, 10 mg/kg p.o., brains removed 2 hr after return of food, read-out: % Receptor Occupancy (mean ± S-D)): 82 ± 2%
Plasma-to-brain concentration ratio at […] [3]: 2.9 ± 0.25
Kb ([4]; GTPγ[35S] assay): 0.63 nM
Slope ([4]; GTPγ[35S] functional assay, Schild slope): 0.83
Ki ([4]; inhibition of CP-55940-stimulated GTPγ[35S] binding, read-out: Antagonist Ki, GTPγ[35S] functional assay): 0.07 ± 0.01 nM
inhibition at 10 µM [5]: 11%
Exposure in chow-fed versus DIO rats ([7]; PK studies): no differences in exposure
Tmax ([7]; Sprague Dawley, rat, in vivo, oral, data not shown): 1 h
SMILES: CCNC1(C(N)=O)CN(c2nc(C)nc3c(-c4ccc(Cl)cc4)c(-c4ccccc4Cl)nn23)C1 [CE-178253]
Decrease in body weight compared to veh ([6]; 0.3 mg/kg p.o. once daily): 3.3%
Final body weight ([6]; 0.3 mg/kg, initial 632 ± 11 g): 616 ± 12 g
Decrease in body weight compared to veh ([6]; 1 mg/kg p.o. once daily): 5.9%
Final body weight ([6]; 1 mg/kg, initial 637 ± 11 g): 602 ± 11 g
